Source: US5602153A, “Method of using 1-arylheteroarylalkyl substituted-1H-1,2,4-triazole compounds for treatment of a giaucoma disorder” (G.D. Searle & Co., priority 1993, dated 1997)
Read-outs that look alike come from different tables or passages of the source.

How the values were obtained:
[1] = target: smooth muscle angiotensin II receptor; test: Assay A: Angiotensin II Binding Activity (displacement of 125I-AII, rat uterine membrane preparation); settings: rat uterine membranes, 25 °C, 60 min; read-out: IC50 (50% displacement of total specifically bound 125I-AII)
Description: Assay A: Anaiotensin II Binding Activity
Compounds of the invention were tested for ability to bind to the smooth muscle angiotensin II receptor using a rat uterine membrane preparation. Angiotensin II (AII) was purchased from Peninsula Labs. ^125 I-angiotensin II (specific activity of 2200 Ci/mmol) was purchased from Du Pont-New England Nuclear. Other chemicals were obtained from Sigma Chemical Co. This assay was carried out according to the method of Douglas et al [Endocrinology, 106, 120-124 (1980)]. Rat uterine membranes were prepared from fresh tissue. All procedures were carried out at 4° C. Uteri were stripped of fat and homogenized in phosphate-buffered saline at pH 7.4 containing 5 mM EDTA. The homogenate was centrifuged at 1500×g for 20 min., and the supernatant was recentrifuged at 100,000×g for 60 min. The pellet was resuspended in buffer consisting of 2 mM EDTA and 50 mM Tris-HCl (pH 7.5) to a final protein concentration of 4 mg/ml. Assay tubes were charged with 0.25 ml of a solution containing 5 mM MgCl2, 2 mM EDTA, 0.5% bovine serum albumin, 50 mM Tris-HCl, pH 7.5 and ^125 I-AII (approximately 10^5 cpm) in the absence or in the presence of unlabelled ligand. The reaction was initiated by the addition of membrane protein and the mixture was incubated at 25° C. for 60 min. The incubation was terminated with ice-cold 50 mM Tris-HDl (pH 7.5) and the mixture was filtered to separate membrane-bound labelled peptide from the free ligand. The incubation tube and filter were washed with ice-cold buffer. Filters were assayed for radioactivity in a Micromedic gamma counter. Nonspecific binding was defined as binding in the presence of 10 μM of unlabelled AII. Specific binding was calculated as total binding minus nonspecific binding. The receptor binding affinity of an AII antagonist compound was indicated by the concentration (IC50) of the tested AII antagonist which gives 50% displacement of the total specifically bound ^125 I-AII from the high affinity AII receptor. Binding data were analyzed by a nonlinear least-squares curve fitting program.

[2] = target: T1, rabbit aortic rings (Oryctolagus cuniculus, UniProt P34976); test: Assay B: In Vitro Vascular Smooth Muscle-Response for AII (antagonist activity in rabbit aortic rings); assay type: cell-based, rabbit (male New Zealand white); settings: antagonist 10^-5 M for 5 min, AII challenge
T1 construct: The thoracic aorta was removed, cleaned of adherent fat and connective tissue; from tissue; host or cells: thoracic aorta rings, endothelium removed, male New Zealand white rabbit
T1 sequence (P34976 1-359): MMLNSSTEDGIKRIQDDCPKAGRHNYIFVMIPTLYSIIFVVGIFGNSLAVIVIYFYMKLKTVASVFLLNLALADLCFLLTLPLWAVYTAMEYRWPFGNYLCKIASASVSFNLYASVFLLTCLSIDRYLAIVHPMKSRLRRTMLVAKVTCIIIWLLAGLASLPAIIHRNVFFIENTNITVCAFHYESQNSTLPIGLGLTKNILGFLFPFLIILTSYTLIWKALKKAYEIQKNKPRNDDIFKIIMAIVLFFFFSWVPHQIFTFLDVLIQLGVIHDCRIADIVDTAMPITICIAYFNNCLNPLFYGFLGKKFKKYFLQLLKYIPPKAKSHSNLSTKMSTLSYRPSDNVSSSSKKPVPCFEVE
Description: Assay B: In Vitro Vascular Smooth Muscle-Response for AII The compounds of the invention were tested for antagonist activity in rabbit aortic rings. Male New Zealand white rabbits (2-2.5 kg) were sacrificed using an overdose of pentobarbital and exsanguinated via the carotid arteries. The thoracic aorta was removed, cleaned of adherent fat and connective tissue and then cut into 3-mm ring segments. The endothelium was removed from the rings by gently sliding a rolled-up piece of filter paper into the vessel lumen. The rings were then mounted in a water-jacketed tissue bath, maintained at 37° C., between moveable and fixed ends of a stainless steel wire with the moveable end attached to an FT03 Grass transducer coupled to a Model 7D Grass Polygraph for recording isometric force responses. The bath was filled with 20 ml of oxygenated (95% oxygen/5% carbon dioxide) Krebs solution of the following composition (mM): 130 NaCl, 15 NaHCO3, 15 KCl, 1.2 NaH2 PO4, 1.2 MgSO4, 2.5 CaCl2, and 11.4 glucose. The preparations were equilibrated for one hour before approximately one gram of passive tension was placed on the rings. Angiotensin II concentration-response curves were then recorded (3×10^-10 to 1×10^-5 M). Each concentration of AII was allowed to elicit its maximal contraction, and then AII was washed out repeatedly for 30 minutes before rechallenging with a higher concentration of AII. Aorta rings were exposed to the test antagonist at 10^-5 M for 5 minutes before challenging with AII. Adjacent segments of the same aorta ring were used for all concentration-response curves in the presence or absence of the test antagonist. The effectiveness of the test compound was expressed in terms of pA2 values and were calculated according to H.O. Schild [Br. J. Pharmacol. Chemother., 2, 189-206 (1947)]. The pA2 value is the concentration of the antagonist which increases the EC50 value for AII by a factor of two. Each test antagonist was evaluated in aorta rings from two rabbits.

[3] = first of two rabbits, read-out: pA2 (first value) (converted)
[4] = second of two rabbits, read-out: pA2 (converted)

| Structure (SMILES) | IC50 [1] | Kb [2, 3] | Kb [2, 4] |
| --- | --- | --- | --- |
| CCCCc1nc(CCCC)n(Cc2ccc(-c3ccccc3C(=O)O)nc2)n1 [Example 2, 2-[5-[(3,5-dibutyl-1H-1,2,4-triazol-1-yl)methyl]-2-pyridinyl]benzoic acid] | 0.12 µM |  |  |
| CCCCc1nc(CCCC)n(Cc2ccc(-c3cccnc3-c3nnn[nH]3)cc2)n1 [Example 4, 5-[3-[4-[(3,5-dibutyl-1H-1,2,4-triazol-1-yl)methyl]phenyl]-2-pyridinyl]-1H-tetrazole] | 0.11 µM | 0.0776 µM | 0.251 µM |
| CCCCc1nc(CCCC)n(Cc2ccc(-c3ccncc3-c3nnn[nH]3)cc2)n1 [Example 5, 5-[4-[4-[(3,5-dibutyl-1H-1,2,4-triazol-1-yl)methyl]phenyl]-3-pyridinyl]-1H-tetrazole] | 0.25 µM |  |  |
| CCCCc1nc(CCCC)n(Cc2ccc(-c3cnccc3-c3nnn[nH]3)cc2)n1 [Example 6, 5-[3-[4-[(3,5-dibutyl-1H-1,2,4-triazol-1-yl)methyl]phenyl]-4-pyridinyl]-1H-tetrazole] | 0.15 µM | 0.0676 µM | 0.0676 µM |
| CCCCc1nc(CCCC)n(Cc2ccc(-c3ncccc3-c3nnn[nH]3)cc2)n1 [Example 7, 5-[2-[4-[(3,5-dibutyl-1H-1,2,4-triazol-1-yl)methyl]phenyl]-3-pyridinyl]-1H-tetrazole] | 0.098 µM | 0.229 µM | 0.0912 µM |
| CCCc1nc(CCC)n(Cc2ccc(-c3ccccc3-c3nnn[nH]3)nc2)n1 [Example 8, 5-[2-[5-[(3,5-dipropyl-1H-1,2,4triazol-1-yl)methyl]-2-pyridinyl]phenyl]-1H-tetrazole] | 0.072 µM | 0.0347 µM | 0.0257 µM |
| CCCCc1nc(CC(CC)CC)nn1Cc1ccc(-c2ccccc2-c2nnn[nH]2)nc1 [Example 13, 5-[2-[5-[[3-(2-ethylbutyl)-5-butyl-1H-1,2,4-triazol-1-yl)methyl]-2-pyridinyl]phenyl]-1H-tetrazole] | 0.025 µM |  |  |
| CCCCc1nc(CC(CC)CC)n(Cc2ccc(-c3ccccc3-c3nnn[nH]3)nc2)n1 [Example 14, 5-[2-[5-[[3-butyl-5-(2-ethylbutyl)-1H-1,2,4-triazol-1-yl)methyl]-2-pyridinyl]phenyl]-1H-tetrazole] | 0.013 µM |  |  |
| CCCCc1nc(CCc2ccccc2)nn1Cc1ccc(-c2ccccc2-c2nnn[nH]2)nc1 [Example 15, 5-[2-[5-[[3-(2-phenylethyl)-5-butyl-1H-1,2,4-triazol-1-yl)methyl]-2-pyridinyl]phenyl]-1H-tetrazole] | 0.0026 µM |  |  |
| CCCCc1nc(CCc2ccccc2)n(Cc2ccc(-c3ccccc3-c3nnn[nH]3)nc2)n1 [Example 16, 5-[2-[5-[[3-butyl-5-(2-phenylethyl)-1H-1,2,4-triazol-1-yl)methyl]-2-pyridinyl]phenyl]-1H-tetrazole] | 0.072 µM |  |  |
| CCCCc1nc(C(=O)NC)nn1Cc1ccc(-c2ccccc2-c2nnn[nH]2)nc1 [Example 19, 5-[2-[5-[[3-(N-methylamido)-5-butyl-1H-1,2,4-triazol-1-yl)methyl]-2-pyridinyl]phenyl]-1H-tetrazole] | 0.16 µM | 0.234 µM | 0.209 µM |
| CCCCc1nc(C(=O)NC)n(Cc2ccc(-c3ccccc3-c3nnn[nH]3)nc2)n1 [Example 20, 5-[2-[5-[[3-butyl-5-(N-methylamido)-1H-1,2,4-triazol-1-yl)methyl]-2-pyridinyl]phenyl]-1H-tetrazole] | 0.35 µM | 0.145 µM | 0.145 µM |
| CCCCc1nc(-c2ccccc2)nn1Cc1ccc(-c2ccccc2-c2nnn[nH]2)nc1 [Example 21, 5-[2-[5-[(3-phenyl-5-butyl-1H-1,2,4-triazol-1-yl)methyl]-2-pyridinyl]phenyl]-1H-tetrazole] | 0.054 µM |  |  |
| CCCCc1nc(-c2ccccc2)n(Cc2ccc(-c3ccccc3-c3nnn[nH]3)nc2)n1 [Example 22, 5-[2-[5-[(3-butyl-5-phenyl-1H-1,2,4-triazol-1-yl)methyl]-2-pyridinyl]phenyl]-1H-tetrazole] | 0.22 µM |  |  |
| CCCCc1nc(-c2ccccc2C)nn1Cc1ccc(-c2ccccc2-c2nnn[nH]2)nc1 [Example 23, 5-[2-[5-[[3-(2-methylphenyl)-5-butyl-1H-1,2,4-triazol-1-yl)methyl]-2-pyridinyl]phenyl]-1H-tetrazole] | 0.018 µM |  |  |
| CCCCc1nc(-c2ccccc2C)n(Cc2ccc(-c3ccccc3-c3nnn[nH]3)nc2)n1 [Example 24, 5-[2-[5-[[3-butyl-5-(2-methylphenyl)-1H-1,2,4-triazol-1-yl)methyl]-2-pyridinyl]phenyl]-1H-tetrazole] | 0.53 µM |  | 0.603 µM |
| CCCCc1nc(-c2ccccc2C(C)C)nn1Cc1ccc(-c2ccccc2-c2nnn[nH]2)nc1 [Example 25, 5-[2-[5-[[3-(2-isopropylphenyl)-5-butyl-1H-1,2,4-triazol-1-yl)methyl]-2-pyridinyl]phenyl]-1H-tetrazole] | 0.057 µM |  |  |
| CCCCc1nc(-c2ccccc2C(C)C)n(Cc2ccc(-c3ccccc3-c3nnn[nH]3)nc2)n1 [Example 26, 5-[2-[5-[[3-butyl-5-(2-isopropylphenyl)-1H-1,2,4-triazol-1-yl)methyl]-2-pyridinyl]phenyl]-1H-tetrazole] | 0.011 µM |  |  |
| CCCCc1nc(-c2ccccc2OC)nn1Cc1ccc(-c2ccccc2-c2nnn[nH]2)nc1 [Example 27, 5-[2-[5-[[3-(2-methoxyphenyl)-5-butyl-1H-1,2,4-triazol-1-yl)methyl]-2-pyridinyl]phenyl]-1H-tetrazole] | 0.11 µM |  |  |
| CCCCc1nc(-c2ccccc2OC)n(Cc2ccc(-c3ccccc3-c3nnn[nH]3)nc2)n1 [Example 28, 5-[2-[5-[[3-butyl-5-(2-methoxyphenyl)-1H-1,2,4-triazol-1-yl)methyl]-2-pyridinyl]phenyl]-1H-tetrazole] | 0.29 µM |  |  |
| CCCCc1nc(-c2c(F)cccc2F)nn1Cc1ccc(-c2ccccc2-c2nnn[nH]2)nc1 [Example 31, 5-[2-[5-[[3-(2,6-difluorophenyl)-5-butyl-1H-1,2,4-triazol-1-yl)methyl]-2-pyridinyl]phenyl]-1H-tetrazole] | 0.0097 µM |  |  |
| CCCCc1nc(-c2c(F)cccc2F)n(Cc2ccc(-c3ccccc3-c3nnn[nH]3)nc2)n1 [Example 32, 5-[2-[5-[[3-butyl-5-(2,6-difluorophenyl)-1H-1,2,4-triazol-1-yl)methyl]-2-pyridinyl]phenyl]-1H-tetrazole] | 0.021 µM |  |  |
